# Results: paper PMC12263422, “Cryo-EM structure of the human THIK-1 K2P K^+ channel reveals a lower Y gate regulated by lipids and anesthetics” (Nature Structural & Molecular Biology, 2025)
# Changes are numbered by the printed parent chain. pEC50, pIC50: −log10 of the molar value. Where “and” joins values, the source holds several entries; their conditions need not be identical. Equal values may be shown once. Read-outs that look alike come from different tables or passages of the source.
# Legend:
# [1] = biological target: T1, THIK-1 F262A (Homo sapiens, UniProt Q9HB14, F262A); experiment: Inside-out excised patch recordings, oocytes, THIK-1 F262A mutant (lipid activation); assay type: cell-based; conditions: for pEC50: Linoleic acid EC50, THIK-1 F262A; for Normalized currents / Fold activation with 30.0 µM linoleic acid: THIK-1 F262A
# T1 construct: expressed in transfected cells; host or cells: Xenopus oocytes (mRNA injection)
# T1 sequence (Q9HB14 1-408 F262A): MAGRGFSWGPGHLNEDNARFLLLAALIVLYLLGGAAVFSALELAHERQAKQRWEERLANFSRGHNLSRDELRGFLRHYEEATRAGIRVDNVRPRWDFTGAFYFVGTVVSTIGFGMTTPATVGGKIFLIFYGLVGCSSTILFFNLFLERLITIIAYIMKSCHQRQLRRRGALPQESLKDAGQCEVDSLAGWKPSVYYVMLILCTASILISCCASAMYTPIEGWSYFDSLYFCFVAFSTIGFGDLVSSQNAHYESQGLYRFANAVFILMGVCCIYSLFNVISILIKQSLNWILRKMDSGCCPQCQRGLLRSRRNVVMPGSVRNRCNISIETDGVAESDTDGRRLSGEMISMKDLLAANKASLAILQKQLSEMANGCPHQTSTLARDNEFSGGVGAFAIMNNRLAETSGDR
# Description: (§1) Human K2P13.1 THIK-1 (GenBank accession number: NM_022054) and human K2P12.1 THIK-2 (NM_022055.1) were used in this study. For functional expression studies, the respective K^+ channel subtype coding sequences were subcloned into the oocyte expression vector pSGEM or the dual-purpose expression vector pFAW[41] and verified by sequencing. All mutant channels were obtained by site-directed mutagenesis and verified by sequencing. To increase surface expression and macroscopic currents, measurements of THIK-2 channels used a mutated ER retention motif, (R11A R12A R14A R15A R16A; THIK-2*)[20]. Vector DNA was linearized with NheI or MluI, and mRNA was synthesized in vitro using the SP6 or T7 AmpliCap Max High Yield Message Maker Kit (Cellscript, USA) or HiScribe T7 ARCA mRNA Kit (New England Biolabs).
# Two-electrode voltage–clamp (TEVC) studies were performed in Xenopus oocytes. All animal use conformed to the Guide for the Care and Use of Laboratory Animals (NIH Publication 85–23), and all experiments using Xenopus toads were approved by the local ethics panels. Oocytes were stored at 17 °C in ND96 recording solution composed of (in mM): 96 NaCl, 2 KCl, 1.8 CaCl2, 1 MgCl2, 5 HEPES (pH 7.5 adjusted with NaOH and HCl), supplemented with Na-pyruvate (275 mg L^–1), theophylline (90 mg L^–1) and gentamicin (50 mg L^–1). Oocytes were injected with 1 ng mRNA for WT or mutant channels, and were incubated for 24–48 h at 17 °C. Two-electrode voltage clamp recordings were then performed as previously described[42],[43]. For macroscopic patch–clamp measurements, oocytes were obtained as described above incubated at 17 °C in a solution containing (mM): 54 NaCl, 30 KCl, 2.4 NaHCO3, 0.82 MgSO4 ×7 H2O, 0.41 CaCl2, 0.33 Ca(NO3)2 ×4 H2O and 7.5 TRIS (pH 7.4 adjusted with NaOH and HCl) for 1–4 days before use. Excised patch recordings in inside-out configuration conditions were performed at room temperature. Patch pipettes were made from thick-walled borosilicate glass GB 200TF-8P (Science Products), had resistances of 0.2–0.5 MΩ (tip diameter, 10–25 µm) and filled with a pipette solution (in mM): 120 KCl, 10 HEPES and 3.6 CaCl2 (pH 7.4 adjusted with KOH and HCl). Intracellular bath solutions and compounds were applied to the cytoplasmic side of excised patches for the various K^+ channels through a gravity flow multi-barrel pipette system. The intracellular solution had the following composition (in mM): 120 KCl, 10 HEPES, 2 EGTA and 1 pyrophosphate (pH adjusted with KOH and HCl). Currents were recorded with an EPC10 amplifier (HEKA Electronics) and sampled at 10 kHz or higher, with filtering set to 3 kHz (–3 dB) or higher, as appropriate for sampling rate. For measurements of GPCR activation, whole-cell currents were recorded for THIK-1 in transiently transfected HEK-293 cells. Cells were stimulated by a ramp protocol between −100 and +60 mV (holding potential, −80 mV). The pipette solution was composed of (in mM): 140 KCl, 2 MgCl2, 1 CaCl2, 2.5 EGTA and 10 HEPES (pH 7.3 adjusted with KOH and HCl). The extracellular bath solution had the following composition (in mM): 135 NaCl, 5 KCl, 2 MgCl2, 2 CaCl2, 10 glucose and 10 HEPES pH (pH 7.3 adjusted with NaOH and HCl). Oxotremorine M (Oxo-M) was added to extracellular bath solution to obtain the final concentration. Single-channel currents were recorded with an Axopatch 200B amplifier through a Digidata 1440A digitizer (Molecular Devices). Data were filtered at 2 kHz and recorded at a 200-kHz sampling rate with the program Clampex (Molecular Devices). Pipette solution and bath solution for cell-attached recordings contained (in mM): 140 KCl, 2 MgCl2, 1 CaCl2 and 10 HEPES (pH 7.4 adjusted with KOH and HCl). For inside-out recordings, the bath solution contained (in mM): 140 KCl, 2 MgCl2, 1 CaCl2 and 10 HEPES (pH 7.2 adjusted with KOH and HCl). All experiments were conducted at room temperature. […]
# [2] = biological target: T2, THIK-1 C135A (Homo sapiens, UniProt Q9HB14, C135A); experiment: Inside-out excised patch recordings, oocytes, THIK-1 C135A mutant; assay type: cell-based; conditions: read-out: TPenA IC50
# T2 construct: expressed in transfected cells; host or cells: Xenopus oocytes (mRNA injection)
# T2 sequence (Q9HB14 1-408 C135A): T1 sequence (Q9HB14 1-408 F262A) with C135A, A262F
# Description: as §1
# Two-electrode voltage–clamp (TEVC) studies were performed in Xenopus oocytes. All animal use conformed to the Guide for the Care and Use of Laboratory Animals (NIH Publication 85–23), and all experiments using Xenopus toads were approved by the local ethics panels. Oocytes were stored at 17 °C in ND96 recording solution composed of (in mM): 96 NaCl, 2 KCl, 1.8 CaCl2, 1 MgCl2, 5 HEPES (pH 7.5 adjusted with NaOH and HCl), supplemented with Na-pyruvate (275 mg L^–1), theophylline (90 mg L^–1) and gentamicin (50 mg L^–1). Oocytes were injected with 1 ng mRNA for WT or mutant channels, and were incubated for 24–48 h at 17 °C. Two-electrode voltage clamp recordings were then performed as previously described[42],[43]. […] Currents were recorded with an EPC10 amplifier (HEKA Electronics) and sampled at 10 kHz or higher, with filtering set to 3 kHz (–3 dB) or higher, as appropriate for sampling rate. For measurements of GPCR activation, whole-cell currents were recorded for THIK-1 in transiently transfected HEK-293 cells. […] Single-channel currents were recorded with an Axopatch 200B amplifier through a Digidata 1440A digitizer (Molecular Devices). Data were filtered at 2 kHz and recorded at a 200-kHz sampling rate with the program Clampex (Molecular Devices). […]
Structure (SMILES),pEC50 ([1]; individual recordings),pEC50 ([1]; mean),Normalized currents ([1]; 1 µM linoleic acid),Normalized currents ([1]; 10 µM linoleic acid),Normalized currents ([1]; 30 µM linoleic acid),Normalized currents ([1]; 50 µM linoleic acid),Normalized currents ([1]; 100 µM linoleic acid),Normalized currents ([1]; 150 µM linoleic acid),Normalized currents ([1]; 200 µM linoleic acid),Fold activation with 30.0 µM linoleic acid ([1]; individual recordings),Fold activation with 30.0 µM linoleic acid ([1]; mean),pIC50 ([2]; C135A mutant),"pIC50 ([2]; THIK-1 C135A, individual recordings)","pIC50 ([2]; THIK-1 C135A, mean)"
CCCCC/C=C\C/C=C\CCCCCCCC(=O)O [linoleic acid],4.31 and 4.29 and 3.53 and 3.68 and 4.04 and 4.19 and 4.36 and 4.23,3.97,0.94,1.46,1.58,2.39,3.02,3.33,3.40,1.770 and 1.480 and 1.860 and 1.430 and 1.420 and 1.440,1.57,–,–,–
"CCCCC[N+](CCCCC)(CCCCC)CCCCC [TPenA, tetrapentylammonium]",–,–,–,–,–,–,–,–,–,–,–,2.97,2.90 and 2.81 and 2.93 and 3.13 and 2.84 and 3.21 and 3.33,2.97
